{"source": "patent US20230014352A1", "about": "“INHALED STATINS AS BRONCHODILATORS TO IMPROVE LUNG FUNCTION IN RESPIRATORY DISEASES” (priority 2019, published 2023)", "key": {"ASM cells [1]": {"test_system": "ASM cells", "assay": "RealTime-Glo Annexin V Apoptosis and Necrosis assay", "assay_type": "cell-based, human", "description": "Lack of apoptosis: Some studies have shown that statins at high enough doses can reduce the viability of vascular smooth muscle cells, epithelial cells, and endothelial cells (S. Ghavami et al., Biochim Biophys Acta (2014) 1843(7):1259-71; T. P. Miettinen et al., Cell Rep (2015) 13(11):2610-20).\nRealTime-Glo™ Annexin V Apoptosis and Necrosis assay was performed by growing ASM cells on 96-well white cell culture plate according to the manufacturer's instructions (Promega Inc). […] In this real-time annexin V binding assay, the luminescence signal was detected for apoptosis and necrosis was detected with a fluorescence signal by using a SpectraMax® plate reader. […] (20 μg/mL) was used as a positive control (FIG. 2)."}, "[2]": {"test_system": "primary human airway smooth muscle (ASM) cells", "assay": "Contractile force screening (CFS), basal ASM cell contraction (strain energy)", "assay_type": "cell-based", "details": "for basal ASM cell contraction / strain energy (ASM contraction): 24 hours; for basal ASM cell contraction: FIG. 1A/1D; for strain energy (ASM contraction): compared to pravastatin, FIG. 1C", "description": "Primary human airway smooth muscle (ASM) cells derived from both non-asthmatic and asthmatic donors were obtained from the Gift of Hope Organ and Tissue Donor Network. These cells have been well-characterized previously (see for example H. Yoshie et al., Biophys J (2018) 114(9):2194-99). All measurements were performed using cells at passage 5-8 from three non-asthmatic donors. Cells were grown on either 10% serum-containing F12 complete media, or serum-deprived media supplemented with insulin, transferrin, and selenium (Corning, Tewksbury, Mass.). Contractile Force Screening: Human ASM cells were grown to confluence in 96-well plates on custom NuSilTM 8100 elastic substrates (Avantor, Inc., Radnor, Pa.) (R. […] Fluorescent beads (diameter 400 nm) were embedded in the substrate surface to enable traction force calculations based on their displacements. To measure fractions, an inverted epi-fluorescence microscope (DMI 6000B, Leica Inc., Germany) equipped with a heated chamber (37° C.), a monochrome camera ([…]), and a motorized stage was used. Spatial images were recorded of substrate-embedded fluorescent beads at 10× magnification. Based on the bead displacements (resolution 15 μm) relative to a cell-free model, together with knowledge of substrate stiffness and thickness, fractions were computed using the approach of Fourier Transform Traction Cytometry ([…] et al., Pharmacol Ther (2014) 143(1):87-110), modified to the case of cell monolayers ([…] et al., Cell (2007) 129(3):511-22). From each fraction map, the root-mean-squared traction (RMST) value and strain energy were calculated and reported as a measure of normal contraction in the monolayer. On a well-by-well basis, the ratio of the strain energy after vs. before treatment was computed, and all values of a given treatment group were normalized to the mean of each treatment group. Comparison of Statins: […] MA is the immediate product of HMGCR action on HMB-CoA, so addition of MA would reverse the effect of statin inhibition of HMGCR. […] Simvastatin-acid (SA), atorvastatin, pravastatin, and pitavastatin were examined with CFS to determine the dose response of the ASM relaxation effect. […] From each ASM force map, the strain energy (i.e., the energy that is imparted to the substrate by the contractile cells, in pJ) was computed, to represent the average cellular contraction."}, "[3]": {"test_system": "precision-cut human lung slices", "assay": "Histamine-induced bronchoconstriction in precision-cut human lung slices, pitavastatin and isoproterenol", "details": "30 μM for 30 min after histamine 10 μM 15 min; FIG. 13", "description": "The experiment was performed under serum-deprived media conditions, n=3-7 airways per group. Changes in lumen narrowing were reported as percentage changes (±SEM) of the pre-treatment state (see FIG. 13). The absolute value of lumen airway area was not statistically different between the pitavastatin and control groups at the pre-treatment state."}, "ASM cells [4]": {"test_system": "ASM cells", "assay": "Simulated deep breath (stretch-unstretch), cell mapping rheometry and CFS", "assay_type": "cell-based, human", "details": "10 μM, 30 min", "description": "Well-defined biaxial stretch (4 sec duration, 10% magnitude) was imposed using the method of cell mapping rheometry. The strain energy from each ASM force map was computed as a metric of average cellular contraction, and reported as fold changes to the pre-stretch baseline value.\nNormal ASM was treated with pitavastatin (1 μM, 24 hrs, n=7), isoproterenol (10 μM, 30 min, n=6) or vehicle (n=7), and examined by CFS as described above. […] Shown are contraction values normalized to the untreated control group. […] The contraction force gradually recovered over 180 seconds. […] All data are reported as mean and standard error of the mean (SEM)."}, "[5]": {"assay": "Tissue distribution of inhaled (nebulized) simvastatin, mass spectrometry", "details": "day 12, organs collected after euthanasia"}}, "note": "“Also recorded” adds a separate entry of the source. Where two headings read alike, the source gives them in different places."}
{"smiles": "CC(C)c1nc(N(C)S(C)(=O)=O)nc(-c2ccc(F)cc2)c1/C=C/[C@@H](O)C[C@@H](O)CC(=O)O", "note": "[rosuvastatin]", "values": [{"measurement": "apoptosis and necrosis (cell death)", "setting": "ASM cells [1]", "result": "no evidence of apoptosis or cell death"}, {"measurement": "basal ASM cell contraction", "setting": "[2]; 1 μM", "result": "little to no effect"}]}
{"smiles": "CC(C)c1c(C(=O)Nc2ccccc2)c(-c2ccccc2)c(-c2ccc(F)cc2)n1CC[C@@H](O)C[C@@H](O)CC(=O)O", "note": "[atorvastatin]", "values": [{"measurement": "strain energy (ASM contraction)", "setting": "[2]; 2 and 10 μM", "result": "significantly (and further) reduce strain energy"}]}
{"smiles": "CC[C@H](C)C(=O)O[C@H]1C[C@H](O)C=C2C=C[C@H](C)[C@H](CC[C@@H](O)C[C@@H](O)CC(=O)O)[C@H]21", "note": "[pravastatin]", "values": [{"measurement": "apoptosis and necrosis (cell death)", "setting": "ASM cells [1]", "result": "no evidence of apoptosis or cell death"}, {"measurement": "strain energy (ASM contraction)", "setting": "[2]; 0.4 μM", "result": "no effect"}]}
{"smiles": "CC(C)NCC(O)c1ccc(O)c(O)c1", "note": "(centres unmarked) [isoproterenol]", "values": [{"measurement": "histamine (Hist)-induced bronchoconstriction", "setting": "[3]", "result": "reduced"}, {"measurement": "basal ASM contraction compared to untreated controls", "setting": "ASM cells [4]; FIG. 12A", "result": "significantly inhibited basal ASM contraction"}, {"measurement": "augmentation of stretch-induced ASM force relaxation", "setting": "ASM cells [4]; FIG. 12B", "result": "not conferred; also recorded: notably absent"}]}
{"smiles": "CCC(C)(C)C(=O)O[C@H]1C[C@@H](C)C=C2C=C[C@H](C)[C@H](CC[C@@H]3C[C@@H](O)CC(=O)O3)[C@H]21", "note": "[simvastatin]", "values": [{"measurement": "apoptosis and necrosis (cell death)", "setting": "ASM cells [1]; statin doses tested, FIGS. 2B-E", "result": "no evidence of apoptosis or cell death"}, {"measurement": "basal ASM cell contraction", "setting": "[2]; 1 μM", "result": "more potent"}, {"measurement": "ASM contraction over time compared to control", "setting": "[2]; 1 μM, serum-deprived media, FIG. 10B", "result": "reduced ASM contraction time-dependently"}, {"measurement": "tissue distribution", "setting": "[5]", "result": "mostly present in the mainstem bronchi and the lower lobes"}]}
{"smiles": "CCC(C)(C)C(=O)O[C@H]1C[C@@H](C)C=C2C=C[C@H](C)[C@H](CC[C@@H](O)C[C@@H](O)CC(=O)O)[C@H]21", "note": "[simvastatin acid]", "values": [{"measurement": "dose-dependent effect on ASM", "setting": "[2]; primary ASM cells from three different human donors, FIG. 3", "result": "dose-dependently relax ASM"}, {"measurement": "start of ASM relaxing effects", "setting": "[2]; time-dependent effects, FIG. 4C", "result": 4, "unit": "h"}]}
